Structures can show the parent of a compound that is named as a salt.

In turn, `CNS(=O)(=O)c1ccc(Cn2nc(C)c(C/C(F)=C/CN)c2C)c(C(F)(F)F)c1` (as salt: hydrochloride) [Compound 23, (Z)-4-((4-(4-amino-2-fluorobut-2-en-1-yl)-3,5-dimethyl-1H-pyrazol-1-yl)methyl)-N-methyl-3-(trifluoromethyl)benzenesulfonamide hydrochloride] registered a melting point of 171 to 172 °C. In turn, `Cc1nn(Cc2ccc(S(C)(=O)=O)c(Cl)c2)c(C)c1C/C(F)=C/CN` (as salt: hydrochloride) [Compound 24, (Z)-4-(1-(3-chloro-4-(methylsulfonyl)benzyl)-3,5-dimethyl-1H-pyrazol-4-yl)-3-fluorobut-2-en-1-amine hydrochloride] came in with a melting point of 92 to 94 °C. In turn, `CNS(=O)(=O)c1cc(F)c(Cn2nc(C)c(C/C(F)=C/CN)c2C)cc1F` (as salt: hydrochloride) [Compound 26, (Z)-4-((4-(4-amino-2-fluorobut-2-en-1-yl)-3,5-dimethyl-1H-pyrazol-1-yl)methyl)-2,5-difluoro-N-methylbenzenesulfonamide hydrochloride] had a melting point of 100 to 103 °C. Regarding `CCOC(=O)c1c(Cc2ccc(S(=O)(=O)N(C)C)cc2)c(C)nn1C/C(F)=C/CN` (as salt: hydrochloride) [Compound 27, (Z)-ethyl 1-(4-amino-2-fluorobut-2-enyl)-4-(4-(N,N-dimethylsulfamoyl)benzyl)-3-methyl-1H-pyrazole-5-carboxylate hydrochloride], the melting point fell in the range of 157 to 159 °C. For `Cc1nn(C/C(F)=C/CN)c(C(=O)N(C)C)c1Cc1ccc(S(=O)(=O)N(C)C)cc1` (as salt: hydrochloride) [Compound 29, (Z)-1-(4-amino-2-fluorobut-2-enyl)-4-(4-(N,N-dimethylsulfamoyl)benzyl)-N,N,3-trimethyl-1H-pyrazole-5-carboxamide hydrochloride], the melting point fell in the range of 77 to 80 °C. The compound `Cc1nn(C/C(F)=C/CN)c(C(=O)O)c1Cc1ccc(S(=O)(=O)N(C)C)cc1` (as salt: hydrochloride) [Compound 30, (Z)-1-(4-amino-2-fluorobut-2-enyl)-4-(4-(N,N-dimethylsulfamoyl)benzyl)-3-methyl-1H-pyrazole-5-carboxylic acid hydrochloride] had a melting point of 164 to 166 °C.

Consider `Cc1c(Cc2ccc(S(=O)(=O)N(C)C)cc2)c(C(=O)O)nn1C/C(F)=C/CN` (as salt: hydrochloride) [Compound 31, (Z)-1-(4-amino-2-fluorobut-2-enyl)-4-(4-(N,N-dimethylsulfamoyl)benzyl)-5-methyl-1H-pyrazole-3-carboxylic acid hydrochloride], for which the melting point was 262 to 264 °C.

Values taken from patent US20200069648A1, “HALOALLYLAMINE PYRAZOLE DERIVATIVE INHIBITORS OF LYSYL OXIDASES AND USES THEREOF” (Pharmaxis Ltd., priority 2017, published 2020).
